Experimental data as given in paper PMC9863987, “Identification of Aryl Polyamines Derivatives as Anti-Trypanosoma cruzi Agents Targeting Iron Superoxide Dismutase” (Pharmaceutics, 2022).

Columns and labels:
[1] = system: T. cruzi Arequipa strain amastigotes; assay: Screening against intracellular amastigotes in Vero cells, Arequipa strain (Giemsa counting); assay type: cell-based, Trypanosoma cruzi
Experimental: (§1) TINF/CH/1956/Tulahuen, DTU VI [26]—were grown at 28 °C in Gibco® RPMI 1640 Medium supplemented as previously reported, and used for in vitro screening. Trypanocidal activity against amastigotes was tested as previously reported. In brief, bloodstream trypomastigotes (BTs), obtained by cardiac puncture from infected BALB/c mice, were used to infect 1 × 10^4 Vero cells·well^−1 in 24-well plates with rounded coverslips at a multiplicity of infection (MOI) ratio of 10:1. After 24 h of infection, non-internalized trypomastigotes were washed and the infected cells were treated by adding the compounds in serial dilutions from 50 to 0.5 µM in […] for 72 h. BZN and untreated growth controls were also included in triplicate. Later, the number of amastigotes and infected cells were determined in Giemsa stained preparations by analysing 500 host cells randomly distributed in microscopic fields. The trypanocidal activity was expressed as the IC50 using GraphPad Prism 6 software (version 6.07).

[2] = system: T. cruzi Arequipa strain trypomastigotes; assay: Screening against bloodstream trypomastigotes, Arequipa strain (resazurin); assay type: cell-based, Trypanosoma cruzi; details: Trypanosoma cruzi; trypomastigotes; 24 h + 4 h resazurin; mean of three ± SD
[3] = system: T. cruzi SN3 strain amastigotes; assay: Screening against intracellular amastigotes in Vero cells, SN3 strain (Giemsa counting); assay type: cell-based, Trypanosoma cruzi; details: Trypanosoma cruzi; amastigotes in Vero cells; 72 h; mean of three ± SD
Experimental: as §1

[4] = system: T. cruzi Tulahuen strain epimastigotes; assay: Screening against extracellular epimastigotes, Tulahuen strain (resazurin); assay type: cell-based, Trypanosoma cruzi; details: Trypanosoma cruzi, TULAHUEN; epimastigotes; 48 h treatment + 24 h resazurin; mean of three ± SD; read-out: Activity IC50 T. cruzi Tulahuen Strain E
Experimental: Three different T. cruzi […] strains—MHOM/Pe/2011/Arequipa, discrete typing unit (DTU) V [26]; IRHOD/CO/2008/SN3, DTU I [27]; TINF/CH/1956/Tulahuen, DTU VI [26]—were grown at 28 °C in Gibco® RPMI 1640 Medium supplemented as previously reported, and used for in vitro screening.
Trypanocidal activity against epimastigotes was tested as previously reported. In brief, 5 × 10^5 mL^−1 epimastigotes culture medium were treated by adding the compounds in serial dilutions from 100 to 0.2 µM in 96-well plates (200 µL·well^−1) for 48 h. BZN and untreated growth control were also included in triplicate. Later, 20 μL of resazurin sodium salt (Sigma-Aldrich, St. Louis, MO, USA) was added, and the plates were incubated for another 24 h. Finally, the absorbance of the wells was measured at 570/600 nm and related to the control. The trypanocidal activity was expressed as the IC50 (inhibitory concentration 50) value using GraphPad Prism 6 software.

[5] = system: T. cruzi Tulahuen strain amastigotes; assay: Screening against intracellular amastigotes in Vero cells, Tulahuen strain (Giemsa counting); assay type: cell-based, Trypanosoma cruzi; details: Trypanosoma cruzi, TULAHUEN; amastigotes in Vero cells; 72 h; mean of three ± SD
Experimental: as §1

[6] = system: T. cruzi Tulahuen strain trypomastigotes; assay: Screening against bloodstream trypomastigotes, Tulahuen strain (resazurin); assay type: cell-based, Trypanosoma cruzi; details: Trypanosoma cruzi, TULAHUEN; trypomastigotes; 24 h + 4 h resazurin; mean of three ± SD
T. cruzi Arequipa strain [7] = assay: Monitoring of acute parasitaemia by counting in infected BALB/c mice; assay type: in vivo, Trypanosoma cruzi; details: acute infection
Experimental: (§2) All animal work (Scheme 1) and maintenance was performed under RD53/2013 and approved by the Ethics Committee on Animal Experimentation (CEEA) of the University of Granada, Spain. Female BALB/c mice (aged 10–12 weeks and 20–22 g) were used in the subsequent in vivo assays.
(§3) Infection was carried out by intraperitoneal inoculation of 5 × 10^5 BTs of T. cruzi Arequipa strain per mouse in 0.2 mL PBS [26]. The infection was monitored and on the 10th day post-infection (dpi), when BTs were visible in the bloodstream, the infection was confirmed.
(§4) Mice were divided into four groups (n = 3 per group): 0, negative control group (uninfected and untreated mice); I, positive control group (infected and untreated mice); II, BZN group (mice infected and treated with BZN); III, 15 group (mice infected and treated with 15).
(§5) The treatment for mice treated in the acute and chronic CD began when the infection was confirmed (10th dpi) and was stablished that the animals had entered the chronic CD (75th dpi), respectively (Scheme 1). Compound 15 and BZN were orally administered for 5 consecutive days at a dose of 20 mg·Kg^−1·day^−1.
[…]. The fresh blood microscopic examination was performed from the 7th day until the day when parasitaemia was not detected (Scheme 1).

T. cruzi Arequipa strain [8] = assay: Infection reactivation by cyclophosphamide immunosuppression in infected BALB/c mice; assay type: in vivo, Trypanosoma cruzi; details: oral 20 mg/Kg/day for 5 days, related to control group
T. cruzi Arequipa strain [9] = assay: Nested amastigotes detection by PCR in nine target organs/tissues of infected BALB/c mice; assay type: in vivo, Trypanosoma cruzi; details: oral 20 mg/Kg/day for 5 days
Experimental: as §3, §4, §5
After CP-induced immunosuppression, the mice were euthanised using CO2 by exsanguination via cardiac puncture, and blood was collected. Then, 9 target organs/tissues were harvested: adipose, bone marrow, brain, oesophagus, heart, lung, muscle, spleen, and stomach. These organs/tissues were perfused with pre-warmed PBS to avoid contamination with BTs, and stored at −80 °C. In addition, spleens were weighed to assess splenomegaly.
DNA extraction of the target organs/tissues was performed using Wizard® Genomic DNA Purification Kit. DNA was subjected to amplification by PCR based on the sequence of the T. cruzi splice leader (SL) intergenic region using two published primers (TC and TC1) that allow the amplification of a 300 base pairs fragment in different biological samples. […]

[10] = Clinical analysis of heart, kidney and liver markers in serum of treated mice; assay type: in vivo, BALB/c mice; details: n = 3
Experimental: as §3, §4, §5
Blood samples were collected in several dpi (Scheme 1) and processed according the method previously reported to obtain serum. Serum samples were then aliquoted to ELISA test and clinical analysis.
Heart, kidney and liver markers were measured from blood in several dpi (Scheme 1) with Cromakit® as previously reported. Mean and standard deviations were calculated using the levels measured for different populations of sera (n = 15, n = 3), and the confidence interval were also calculated based on a confidence level of 95% (100 × (1 − α) = 100 × (1 − 0.05)).

[11] = system: epimastigotes of T. cruzi Arequipa strain; assay: Mitochondrial membrane potential by flow cytometry (rhodamine 123); assay type: cell-based, Trypanosoma cruzi; details: compounds at IC25 concentrations, 72 h; KCN 10 mM, 40 min; mean of three ± SD
[12] = assay type: in vivo, BALB/c mice; details: oral 20 mg/Kg/day for 5 days; acute and chronic infections
Experimental: as §2, §3, §4, §5

[13] = treatment in the acute infection
[14] = treatment in acute phase, 16th dpi (2 days after treatment)
[15] = treatment in acute phase, necropsy day
[16] = treatment in chronic phase, 81th dpi (2 days after treatment)
[17] = treatment in chronic phase, necropsy day

O=C(Cn1ccnc1[N+](=O)[O-])NCc1ccccc1 [BZN, benznidazole, reference compound]
number of amastigotes per Vero cell ([1]; 50 μM, 72 h of exposure): practically zero
IC50 ([1]; Trypanosoma cruzi, amastigotes in Vero cells, 72 h, mean of three ± SD): 8.3 ± 0.7 µM
IC50 [2]: 12.4 ± 1.1 µM
IC50 [3]: 16.6 ± 1.4 µM
IC50 [4]: 19.7 ± 1.7 µM
IC50 [5]: 10 ± 0.8 µM
IC50 [6]: 15.1 ± 1.3 µM
parasitaemia reduction on the day of maximum parasitaemia (T. cruzi Arequipa strain [7]; oral 20 mg/Kg/day for 5 days from 10th dpi, vs untreated control): ~ 65%
parasitaemia undetectable, days before control mice (T. cruzi Arequipa strain [7]; oral 20 mg/Kg/day for 5 days, control detectable up to 50 dpi): 3 days
reactivation of parasitaemia after immunosuppression (T. cruzi Arequipa strain [8]; [13]): 75%
reactivation of parasitaemia after immunosuppression (T. cruzi Arequipa strain [8]; treatment in the chronic infection (from 75th dpi)): 51%
clearance of nested parasites in target organs/tissues (parasite-free organs/tissues, PCR) (T. cruzi Arequipa strain [9]; [13]): 33%
clearance of nested parasites in target organs/tissues (parasite-free organs/tissues, PCR) (T. cruzi Arequipa strain [9]; treatment in the chronic infection): 56%
ALP, variation over the range [10, 14]: ++ (20-30% increase/decrease over the range)
ALT/GPT, variation over the range [10, 14]: ++++ (˃ 40% increase/decrease over the range)
AST/GOT, variation over the range [10, 14]: ++++ (˃ 40% increase/decrease over the range)
CK-MB, variation over the range [10, 14]: = (variation ≤ 10%)
LDH, variation over the range [10, 14]: = (variation ≤ 10%)
Total bilirubin, variation over the range [10, 14]: ++ (20-30% increase/decrease over the range)
Urea, variation over the range [10, 14]: --- (30-40% increase/decrease over the range)
Uric acid, variation over the range [10, 14]: ---- (˃ 40% increase/decrease over the range)
ALP, variation over the range [10, 15]: = (variation ≤ 10%)
ALT/GPT, variation over the range [10, 15]: = (variation ≤ 10%)
AST/GOT, variation over the range [10, 15]: ++++ (˃ 40% increase/decrease over the range)
CK-MB, variation over the range [10, 15]: = (variation ≤ 10%)
LDH, variation over the range [10, 15]: = (variation ≤ 10%)
Total bilirubin, variation over the range [10, 15]: + (10-20% increase/decrease over the range)
Urea, variation over the range [10, 15]: --- (30-40% increase/decrease over the range)
Uric acid, variation over the range [10, 15]: = (variation ≤ 10%)
ALP, variation over the range [10, 16]: ++++ (˃ 40% increase/decrease over the range)
ALT/GPT, variation over the range [10, 16]: ++ (20-30% increase/decrease over the range)
AST/GOT, variation over the range [10, 16]: ++ (20-30% increase/decrease over the range)
CK-MB, variation over the range [10, 16]: -- (20-30% increase/decrease over the range)
LDH, variation over the range [10, 16]: --- (30-40% increase/decrease over the range)
Total bilirubin, variation over the range [10, 16]: +++ (30-40% increase/decrease over the range)
Urea, variation over the range [10, 16]: --- (30-40% increase/decrease over the range)
Uric acid, variation over the range [10, 16]: ---- (˃ 40% increase/decrease over the range)
ALP, variation over the range [10, 17]: ++ (20-30% increase/decrease over the range)
ALT/GPT, variation over the range [10, 17]: = (variation ≤ 10%)
AST/GOT, variation over the range [10, 17]: + (10-20% increase/decrease over the range)
CK-MB, variation over the range [10, 17]: = (variation ≤ 10%)
LDH, variation over the range [10, 17]: -- (20-30% increase/decrease over the range)
Total bilirubin, variation over the range [10, 17]: ++ (20-30% increase/decrease over the range)
Urea, variation over the range [10, 17]: --- (30-40% increase/decrease over the range)
Uric acid, variation over the range [10, 17]: -- (20-30% increase/decrease over the range)
Inhibition on mitochondrial membrane potential with respect to untreated epimastigotes [11]: 35.4%
death or body mass loss of treated mice [12]: none of the mice died or lost more than 10% body mass
